From patent US6054258A, “Photographic elements containing high-boiling esters” (Eastman Kodak Company, priority 1998, dated 2000)
≈ marks a conversion by molar mass, not a printed value.

Key:
Assay type in all cases: physicochemical
[1] = Water solubility from light scattering at 500 nm of dispersions of the high-boiling solvent in water
Method: (§1) As noted earlier, high-boiling solvents are desired that have low water solubility and low-to-moderate viscosity and that provide suitably bathochromic dye hues, i.e. hues of suitably long wavelengths. In this example, these properties are evaluated for comparison high-boiling solvents known in the art and for high-boiling solvents of this invention.
Water solubilities were obtained from plots of light scattering at 500 nm of dispersions of the high-boiling solvent in water versus concentration. The light scattering density goes to zero at the solubility limit, when dispersions of high-boiling solvent are diluted. […] Viscosities reported in Table I were measured using a Brookfield cone/plate viscometer. Solvents of high polarity and/or polarizability are often needed to provide suitably bathochromic hues for the types of dyes commonly encountered in color photographic materials. Dye C1, whose structure is provided after Table I, is representative of such dyes. The visible absorption maxima (Lambda max) values for C1, measured with a Perkin Elmer Lambda 2S spectrophotometer, are provided in Table I as measure of solvent polarity/polarizability.

[2] = Viscosity measured using a Brookfield cone/plate viscometer
Method: as §1, with “invention. Results are summarized in Table I. Structures of the comparative high-boiling solvents are provided after Table I.” for “invention.”
(§2) Water solubilities were obtained from plots of light scattering at 500 nm of dispersions of the high-boiling solvent in water versus concentration. The light scattering density goes to zero at the solubility limit, when dispersions of high-boiling solvent are diluted. Values of log P calculated using MEDCHEM version 3.54 are also given in Table I and serve as rough indicators of water solubility. Viscosities reported in Table I were measured using a Brookfield cone/plate viscometer. Solvents of high polarity and/or polarizability are often needed to provide suitably bathochromic hues for the types of dyes commonly encountered in color photographic materials. Dye C1, whose structure is provided after Table I, is representative of such dyes. The visible absorption maxima (Lambda max) values for C1, measured with a Perkin Elmer Lambda 2S spectrophotometer, are provided in Table I as measure of solvent polarity/polarizability.

[3] = Visible absorption maximum (Lambda max) of Dye C1 in the solvent, measure of solvent polarity/polarizability; settings: for Lambda max of Dye C1: Dye C1 in the high-boiling solvent, Perkin Elmer Lambda 2S spectrophotometer; for polarity/polarizability (in words): relative to B1; for Lambda max of Dye C1 (in words): relative to B1 and B4
Method: as §1, with “invention. Results are summarized in Table I. Structures of the comparative high-boiling solvents are provided after Table I.” for “invention.”
as §2

| Structure (SMILES) | solubility [1] | Viscosity [2] | Lambda max of Dye C1 [3] | Lambda max of Dye C1 (in words) [3] | polarity/polarizability (in words) [3] |
| --- | --- | --- | --- | --- | --- |
| CCCCOC(=O)c1ccccc1C(=O)OCCCC [B1, dibutyl phthalate] | 9.4 µg/mL (≈ 33.8 µM) | 17 centipoise | 674 nm | – | – |
| Cc1ccc(C(=O)OCCCc2ccccc2)cc1 [A3] | 3.5 µg/mL (≈ 13.8 µM) | 22 centipoise | 670 nm | relatively close to those of B1 and B4 | – |
| O=C(OCCCc1ccccc1)c1ccccc1 [A1] | 5.5 µg/mL (≈ 22.9 µM) | 15 centipoise | 673 nm | relatively close to those of B1 and B4 | – |
| CC(C)(COC(=O)c1ccccc1)Cc1ccccc1 [A2] | – | 99 centipoise | 668 nm | relatively close to those of B1 and B4 | – |

Further lines, with some results ahead:

| solubility [1] | Viscosity [2] | Lambda max of Dye C1 [3] | Lambda max of Dye C1 (in words) [3] | Structure (SMILES) | polarity/polarizability (in words) [3] |
| --- | --- | --- | --- | --- | --- |
| 0.8 µg/mL (≈ 2.54 µM) | 9 centipoise | 658 nm | – | CCCCOC(=O)CCCCCCCCC(=O)OCCCC [B2] | reduced polarity/polarizability relative to B1 |
| 10 µg/mL (≈ 44.2 µM) | 14 centipoise | 674 nm | – | O=C(OCCc1ccccc1)c1ccccc1 [B4] | – |
| – | 6 centipoise | 661 nm | – | CCCCC(CC)COC(=O)C1CCCCC1 (stereo not drawn) [B3] | reduced polarity/polarizability relative to B1 |
